From ChEMBL document CHEMBL5614428, “Synthesis and antibacterial activities of heterocyclic ring-fused 20(S)-protopanaxadiol derivatives” (Bioorg Med Chem, 2024)
≈ marks a conversion by molar mass, not a printed value.

Columns and labels:
Format in all cases: functional
Staphylococcus aureus [1] = experiment: Antibacterial activity against methicillin-resistant Staphylococcus aureus USA300 assessed as inhibition of bacterial growth incubated for 18 hrs by two fold serial dilution assay
Staphylococcus aureus [2] = experiment: Antibacterial activity against Staphylococcus aureus Newman assessed as inhibition of bacterial growth incubated for 18 hrs by two fold serial dilution assay
Staphylococcus aureus [3] = experiment: Antibacterial activity against methicillin-resistant Staphylococcus aureus NRS-100 assessed as inhibition of bacterial growth incubated for 18 hrs by two fold serial dilution assay
Staphylococcus aureus [4] = experiment: Antibacterial activity against methicillin-resistant Staphylococcus aureus NRS-70 assessed as inhibition of bacterial growth incubated for 18 hrs by two fold serial dilution assay
Staphylococcus aureus [5] = experiment: Antibacterial activity against methicillin-resistant Staphylococcus aureus NRS-271 assessed as inhibition of bacterial growth incubated for 18 hrs by two fold serial dilution assay
Staphylococcus aureus [6] = experiment: Antibacterial activity against methicillin-resistant Staphylococcus aureus NRS-1 assessed as inhibition of bacterial growth incubated for 18 hrs by two fold serial dilution assay
Staphylococcus aureus [7] = experiment: Antibacterial activity against methicillin-resistant Staphylococcus aureus XJ017 assessed as inhibition of bacterial growth incubated for 18 hrs by two fold serial dilution assay
Staphylococcus aureus [8] = experiment: Antibacterial activity against methicillin-resistant Staphylococcus aureus NRS-108 assessed as inhibition of bacterial growth incubated for 18 hrs by two fold serial dilution assay
Staphylococcus aureus [9] = experiment: Antibacterial activity against methicillin-resistant Staphylococcus aureus XJ036 assessed as inhibition of bacterial growth incubated for 18 hrs by two fold serial dilution assay

Structure (SMILES): COc1ccc(NC(=O)CC[C@](C)(O)[C@H]2CC[C@]3(C)[C@@H]2[C@H](O)C[C@@H]2[C@@]4(C)Cc5nc6ccccc6nc5C(C)(C)[C@@H]4CC[C@]23C)cc1
- MIC (Staphylococcus aureus [1]): > 64 µg/mL
- MIC (Staphylococcus aureus [2]): > 64 µg/mL

Structure (SMILES): CC1(C)c2nc3ccccc3nc2C[C@]2(C)[C@H]3C[C@@H](O)[C@@H]4[C@@H]([C@@](C)(O)CCC(=O)Nc5ncc[nH]5)CC[C@@]4(C)[C@]3(C)CC[C@@H]12
- MIC (Staphylococcus aureus [3]): 8 µg/mL (≈ 13.3 µM)
- MIC (Staphylococcus aureus [1]): 2 µg/mL (≈ 3.33 µM)
- MIC (Staphylococcus aureus [4]): 1 µg/mL (≈ 1.67 µM)
- MIC (Staphylococcus aureus [5]): 2 µg/mL (≈ 3.33 µM)
- MIC (Staphylococcus aureus [2]): 2 µg/mL (≈ 3.33 µM)
- MIC (Staphylococcus aureus [6]): 8 µg/mL (≈ 13.3 µM)
- MIC (Staphylococcus aureus [7]): 2 µg/mL (≈ 3.33 µM)
- MIC (Staphylococcus aureus [8]): 2 µg/mL (≈ 3.33 µM)
- MIC (Staphylococcus aureus [9]): 4 µg/mL (≈ 6.67 µM)

Structure (SMILES): CNC(=O)CC[C@](C)(O)[C@H]1CC[C@]2(C)[C@@H]1[C@H](O)C[C@@H]1[C@@]3(C)Cc4nc5ccccc5nc4C(C)(C)[C@@H]3CC[C@]12C
- MIC (Staphylococcus aureus [3]): 8 µg/mL (≈ 14.6 µM)
- MIC (Staphylococcus aureus [1]): 4 µg/mL (≈ 7.3 µM)
- MIC (Staphylococcus aureus [4]): 4 µg/mL (≈ 7.3 µM)
- MIC (Staphylococcus aureus [5]): 8 µg/mL (≈ 14.6 µM)
- MIC (Staphylococcus aureus [2]): 4 µg/mL (≈ 7.3 µM)
- MIC (Staphylococcus aureus [6]): 4 µg/mL (≈ 7.3 µM)
- MIC (Staphylococcus aureus [7]): 16 µg/mL (≈ 29.2 µM)
- MIC (Staphylococcus aureus [8]): 4 µg/mL (≈ 7.3 µM)
- MIC (Staphylococcus aureus [9]): 8 µg/mL (≈ 14.6 µM)

Structure (SMILES): CC1(C)c2nc(N)sc2C[C@]2(C)[C@H]3C[C@@H](O)[C@@H]4[C@@H]([C@@](C)(O)CCCO)CC[C@@]4(C)[C@]3(C)CC[C@@H]12
- MIC (Staphylococcus aureus [1]): > 64 µg/mL
- MIC (Staphylococcus aureus [2]): 16 µg/mL (≈ 32.6 µM)

Structure (SMILES): CC1(C)c2nc3ccccc3nc2C[C@]2(C)[C@H]3C[C@@H](O)[C@@H]4[C@@H]([C@@](C)(O)CCC(=O)NC5CCCC5)CC[C@@]4(C)[C@]3(C)CC[C@@H]12
- MIC (Staphylococcus aureus [1]): > 64 µg/mL
- MIC (Staphylococcus aureus [2]): > 64 µg/mL

Structure (SMILES): CC1(C)c2nc3ccccc3nc2C[C@]2(C)[C@H]3C[C@@H](O)[C@@H]4[C@@H]([C@@](C)(O)CCC(=O)Nc5ccc6ncsc6c5)CC[C@@]4(C)[C@]3(C)CC[C@@H]12
- MIC (Staphylococcus aureus [1]): > 64 µg/mL
- MIC (Staphylococcus aureus [2]): > 64 µg/mL

Structure (SMILES): CC1(C)c2nc3ccccc3nc2C[C@]2(C)[C@H]3C[C@@H](O)[C@@H]4[C@@H]([C@@](C)(O)CCC(=O)Nc5ccc6nccnc6c5)CC[C@@]4(C)[C@]3(C)CC[C@@H]12
- MIC (Staphylococcus aureus [1]): > 64 µg/mL
- MIC (Staphylococcus aureus [2]): > 64 µg/mL

Structure (SMILES): CC1(C)c2nc3ccccc3nc2C[C@]2(C)[C@H]3C[C@@H](O)[C@@H]4[C@@H]([C@@](C)(O)CCC(=O)Nc5ccccc5)CC[C@@]4(C)[C@]3(C)CC[C@@H]12
- MIC (Staphylococcus aureus [1]): > 64 µg/mL
- MIC (Staphylococcus aureus [2]): > 64 µg/mL

Structure (SMILES): CC1(C)c2nc3ccccc3cc2C[C@]2(C)[C@H]3C[C@@H](O)[C@@H]4[C@@H]([C@@](C)(O)CCCO)CC[C@@]4(C)[C@]3(C)CC[C@@H]12
- MIC (Staphylococcus aureus [1]): > 64 µg/mL
- MIC (Staphylococcus aureus [2]): 2 µg/mL (≈ 3.85 µM)

Structure (SMILES): CC1(C)c2ncncc2C[C@]2(C)[C@H]3C[C@@H](O)[C@@H]4[C@@H]([C@@](C)(O)CCCO)CC[C@@]4(C)[C@]3(C)CC[C@@H]12
- MIC (Staphylococcus aureus [1]): > 64 µg/mL
- MIC (Staphylococcus aureus [2]): > 64 µg/mL

Structure (SMILES): CC1(C)c2nc3ccccc3nc2C[C@]2(C)[C@H]3C[C@@H](O)[C@@H]4[C@@H]([C@]5(C)CCCO5)CC[C@@]4(C)[C@]3(C)CC[C@@H]12
- MIC (Staphylococcus aureus [1]): > 64 µg/mL
- MIC (Staphylococcus aureus [2]): > 64 µg/mL

Structure (SMILES): CN(C)C(=O)CC[C@](C)(O)[C@H]1CC[C@]2(C)[C@@H]1[C@H](O)C[C@@H]1[C@@]3(C)Cc4nc5ccccc5nc4C(C)(C)[C@@H]3CC[C@]12C
- MIC (Staphylococcus aureus [3]): 8 µg/mL (≈ 14.2 µM)
- MIC (Staphylococcus aureus [1]): 4 µg/mL (≈ 7.12 µM)
- MIC (Staphylococcus aureus [4]): 4 µg/mL (≈ 7.12 µM)
- MIC (Staphylococcus aureus [5]): 4 µg/mL (≈ 7.12 µM)
- MIC (Staphylococcus aureus [2]): 4 µg/mL (≈ 7.12 µM)
- MIC (Staphylococcus aureus [6]): 4 µg/mL (≈ 7.12 µM)
- MIC (Staphylococcus aureus [7]): > 64 µg/mL
- MIC (Staphylococcus aureus [8]): 4 µg/mL (≈ 7.12 µM)
- MIC (Staphylococcus aureus [9]): 8 µg/mL (≈ 14.2 µM)

Structure (SMILES): CC1(C)c2nccnc2C[C@]2(C)[C@H]3C[C@@H](O)[C@@H]4[C@@H]([C@@](C)(O)CCCO)CC[C@@]4(C)[C@]3(C)CC[C@@H]12
- MIC (Staphylococcus aureus [1]): > 64 µg/mL
- MIC (Staphylococcus aureus [2]): > 64 µg/mL

Structure (SMILES): CC1(C)c2nc3ccccc3nc2C[C@]2(C)[C@H]3C[C@@H](O)[C@@H]4[C@@H]([C@@](C)(O)CCCO)CC[C@@]4(C)[C@]3(C)CC[C@@H]12
- MIC (Staphylococcus aureus [1]): 8 µg/mL (≈ 15.4 µM)
- MIC (Staphylococcus aureus [2]): 4 µg/mL (≈ 7.68 µM)

Structure (SMILES): CC(C)=CCC[C@](C)(O)[C@H]1CC[C@]2(C)[C@@H]1[C@H](O)C[C@@H]1[C@@]3(C)Cc4nc5ccccc5nc4C(C)(C)[C@@H]3CC[C@]12C
- MIC (Staphylococcus aureus [1]): > 64 µg/mL
- MIC (Staphylococcus aureus [2]): > 64 µg/mL

Structure (SMILES): CC1(C)c2nc3ccccc3nc2C[C@]2(C)[C@H]3C[C@@H](O)[C@@H]4[C@@H]([C@@](C)(O)CCC(=O)O)CC[C@@]4(C)[C@]3(C)CC[C@@H]12
- MIC (Staphylococcus aureus [1]): 16 µg/mL (≈ 29.9 µM)
- MIC (Staphylococcus aureus [2]): 16 µg/mL (≈ 29.9 µM)

Structure (SMILES): CC1(C)c2nc3ccccc3nc2C[C@]2(C)[C@H]3C[C@@H](O)[C@@H]4[C@@H]([C@]5(C)CCC(=O)O5)CC[C@@]4(C)[C@]3(C)CC[C@@H]12
- MIC (Staphylococcus aureus [1]): 8 µg/mL (≈ 15.5 µM)
- MIC (Staphylococcus aureus [2]): 4 µg/mL (≈ 7.74 µM)

Structure (SMILES): COC(=O)CC[C@](C)(O)[C@H]1CC[C@]2(C)[C@@H]1[C@H](O)C[C@@H]1[C@@]3(C)Cc4nc5ccccc5nc4C(C)(C)[C@@H]3CC[C@]12C
- MIC (Staphylococcus aureus [1]): > 64 µg/mL
- MIC (Staphylococcus aureus [2]): > 64 µg/mL

Structure (SMILES): Cc1nc2c(o1)C(C)(C)[C@@H]1CC[C@]3(C)[C@H](C[C@@H](O)[C@@H]4[C@@H]([C@@](C)(O)CCCO)CC[C@]43C)[C@@]1(C)C2
- MIC (Staphylococcus aureus [1]): > 64 µg/mL
- MIC (Staphylococcus aureus [2]): > 64 µg/mL

Structure (SMILES): CC1(C)S[C@@H]2[C@H](NC(=O)[C@H](N)c3ccccc3)C(=O)N2[C@H]1C(=O)O [AMPICILLIN]
- MIC (Staphylococcus aureus [3]): 0.063 µg/mL (≈ 0.18 µM)
- MIC (Staphylococcus aureus [4]): 8 µg/mL (≈ 22.9 µM)
- MIC (Staphylococcus aureus [5]): 4 µg/mL (≈ 11.4 µM)
- MIC (Staphylococcus aureus [7]): 32 µg/mL (≈ 91.6 µM)
- MIC (Staphylococcus aureus [8]): 2 µg/mL (≈ 5.72 µM)
- MIC (Staphylococcus aureus [9]): 8 µg/mL (≈ 22.9 µM)

Structure (SMILES): CC1(C)c2[nH]c3ccccc3c2C[C@]2(C)[C@H]3C[C@@H](O)[C@@H]4[C@@H]([C@@](C)(O)CCCO)CC[C@@]4(C)[C@]3(C)CC[C@@H]12
- MIC (Staphylococcus aureus [1]): 32 µg/mL (≈ 63 µM)
- MIC (Staphylococcus aureus [2]): 4 µg/mL (≈ 7.88 µM)

Structure (SMILES): CCCNC(=O)CC[C@](C)(O)[C@H]1CC[C@]2(C)[C@@H]1[C@H](O)C[C@@H]1[C@@]3(C)Cc4nc5ccccc5nc4C(C)(C)[C@@H]3CC[C@]12C
- MIC (Staphylococcus aureus [1]): > 64 µg/mL
- MIC (Staphylococcus aureus [2]): > 64 µg/mL

Structure (SMILES): CCCCNC(=O)CC[C@](C)(O)[C@H]1CC[C@]2(C)[C@@H]1[C@H](O)C[C@@H]1[C@@]3(C)Cc4nc5ccccc5nc4C(C)(C)[C@@H]3CC[C@]12C
- MIC (Staphylococcus aureus [1]): > 64 µg/mL
- MIC (Staphylococcus aureus [2]): > 64 µg/mL

Structure (SMILES): CC1(C)c2nc3ccccc3nc2C[C@]2(C)[C@H]3C[C@@H](O)[C@@H]4[C@@H]([C@@](C)(O)CCC(=O)NC5CCCCC5)CC[C@@]4(C)[C@]3(C)CC[C@@H]12
- MIC (Staphylococcus aureus [1]): > 64 µg/mL
- MIC (Staphylococcus aureus [2]): > 64 µg/mL

Structure (SMILES): CC1(C)c2nc3ccccc3nc2C[C@]2(C)[C@H]3C[C@@H](O)[C@@H]4[C@@H]([C@@](C)(O)CCC(=O)Nc5ccc(C(F)(F)F)cc5)CC[C@@]4(C)[C@]3(C)CC[C@@H]12
- MIC (Staphylococcus aureus [1]): > 64 µg/mL
- MIC (Staphylococcus aureus [2]): > 64 µg/mL

Structure (SMILES): CC1(C)c2nc(N)ncc2C[C@]2(C)[C@H]3C[C@@H](O)[C@@H]4[C@@H]([C@@](C)(O)CCCO)CC[C@@]4(C)[C@]3(C)CC[C@@H]12
- MIC (Staphylococcus aureus [1]): 32 µg/mL (≈ 65.9 µM)
- MIC (Staphylococcus aureus [2]): 16 µg/mL (≈ 32.9 µM)

Structure (SMILES): C[C@H]1COc2c(N3CCN(C)CC3)c(F)cc3c(=O)c(C(=O)O)cn1c23 [LEVOFLOXACIN ANHYDROUS]
- MIC (Staphylococcus aureus [3]): 0.125 µg/mL (≈ 0.346 µM)
- MIC (Staphylococcus aureus [4]): 0.125 µg/mL (≈ 0.346 µM)
- MIC (Staphylococcus aureus [5]): 4 µg/mL (≈ 11.1 µM)
- MIC (Staphylococcus aureus [6]): 16 µg/mL (≈ 44.3 µM)
- MIC (Staphylococcus aureus [7]): 64 µg/mL (≈ 177 µM)
- MIC (Staphylococcus aureus [8]): 0.125 µg/mL (≈ 0.346 µM)
- MIC (Staphylococcus aureus [9]): 32 µg/mL (≈ 88.6 µM)

Structure (SMILES): CC1(C)c2oncc2C[C@]2(C)[C@H]3C[C@@H](O)[C@@H]4[C@@H]([C@@](C)(O)CCCO)CC[C@@]4(C)[C@]3(C)CC[C@@H]12
- MIC (Staphylococcus aureus [1]): > 64 µg/mL
- MIC (Staphylococcus aureus [2]): > 64 µg/mL

Structure (SMILES): CC1(C)c2c(cnc3cccn23)C[C@]2(C)[C@H]3C[C@@H](O)[C@@H]4[C@@H]([C@@](C)(O)CCCO)CC[C@@]4(C)[C@]3(C)CC[C@@H]12
- MIC (Staphylococcus aureus [1]): > 64 µg/mL
- MIC (Staphylococcus aureus [2]): 4 µg/mL (≈ 7.86 µM)
